Reference: patent US9388164B2, “Methods of using pyruvate kinase activators” (AGIOS PHARMACEUTICALS, INC, priority 2011, dated 2016)

Columns and labels:
Assay type in all cases: biochemical
[1] = biological target: PKR R510Q (Homo sapiens, UniProt P30613, R510Q); test: PKR R510Q Single Point Percent Activation Assay; conditions: compound at 1 μM; for activation at 1 µM: read-out: % Act. R510Q
Experimental: PKR R510Q Single Point Percent Activation Assay
(§1) A compound described herein was diluted with DMSO and tested at 1 μM concentration. The enzyme was diluted in 1× Buffer: (100 mM KCl, 50 mM Tris 7.5, 5 mM MgCl2, 1 mM DTT, 0.03% BSA). 2 μL of compound solution was first added into wells, and then 180 μL of enzyme solution was added. Assays were assembled except for ADP, and plates were stored for 60 minutes at RT. 20 μL ADP was added to start the assay and assay output was evaluated using OD340 at SpectraMax. The assay was run at room temperature.
PKR R510Q (40 ng/well), Tris pH 7.5 (50 mM), KCl (100 mM), MgCl2 (5 mM), ADP (0.2 mM), PEP (0.11 mM), NADH (180 μM), LDH (0.5 units, Sigma 59023), DTT (1 mM) and BSA (0.03%).

[2] = biological target: PKR R532W (Homo sapiens, UniProt P30613, R532W); test: PKR R532W Single Point Percent Activation Assay; conditions: compound at 1 μM; for activation at 1 µM: read-out: % Act. R532W
Experimental: PKR R532W Single Point Percent Activation Assay
as §1
PKR R532W (100 ng/well), Tris pH 7.5 (50 mM), KCl (100 mM), MgCl2 (5 mM), ADP (0.36 mM), PEP (0.1 mM), NADH (180 μM), LDH (0.5 units, Sigma 59023), DTT (1 mM) and BSA (0.03%).

[3] = biological target: PKR T384W (Homo sapiens, UniProt P30613); test: PKR T384W Single Point Percent Activation Assay; conditions: compound at 1 μM
Experimental: PKR T384W Single Point Percent Activation Assay
as §1, with “180 μL enzyme solution” for “180 μL of enzyme solution”
PKR T384W soluble (300 ng/well), Tris pH 7.5 (50 mM), KCl (100 mM), MgCl2 (5 mM), ADP (0.08 mM), PEP (0.23 mM), NADH (180 μM), LDH (0.5 units, Sigma 59023), DTT (1 mM) and BSA (0.03%).

[4] = biological target: PKR wt (Homo sapiens, UniProt P30613); test: PKR WT Single Point Percent Activation Assay; conditions: compound at 1 μM
Experimental: PKR WT Single Point Percent Activation Assay
as §1
PKR wt (100 ng/well), Tris pH 7.5 (50 mM), KCl (100 mM), MgCl2 (5 mM), ADP (0.48 mM), PEP (0.15 mM), NADH (180 μM), LDH (0.5 units, Sigma 59023), DTT (1 mM) and BSA (0.03%).

[5] = biological target: wild type PKR (Homo sapiens, UniProt P30613); test: PKR assay, AC50 (wild type); conditions: read-out: PKR WT AC50
Experimental: • PKR or PKR mutant enzyme solution was diluted in assay buffer. • 2 μL of test compound was added into wells first, and then 180 μL reaction mix was added. • Reactions mixture with test compound was assembled except for ADP, and plates were stored for 60 minutes at room temperature. • 20 uL ADP was added to start reaction at room temperature and reaction progress was measured as changes in absorbance at 340 nm wavelength at room temperature.
Test Compound Preparation: • Test compound stock was made at 100× concentration in 100% DMSO (10 mM) • 1 to 3 dilutions were made for 11 points (i.e. 50 μl of first concentration added to 100 μl 100% DMSO to yield 3.33 mM, 50 μl of this added to 100 μl DMSO to yield 1.11 mM, and so forth) • 1 to 100 dilution into assay (2 μl in 200 μl) yielded starting concentration of 100 μM, decreasing 3 fold for 11 points.

Chain of PKR R510Q (P30613 whole entry R510Q): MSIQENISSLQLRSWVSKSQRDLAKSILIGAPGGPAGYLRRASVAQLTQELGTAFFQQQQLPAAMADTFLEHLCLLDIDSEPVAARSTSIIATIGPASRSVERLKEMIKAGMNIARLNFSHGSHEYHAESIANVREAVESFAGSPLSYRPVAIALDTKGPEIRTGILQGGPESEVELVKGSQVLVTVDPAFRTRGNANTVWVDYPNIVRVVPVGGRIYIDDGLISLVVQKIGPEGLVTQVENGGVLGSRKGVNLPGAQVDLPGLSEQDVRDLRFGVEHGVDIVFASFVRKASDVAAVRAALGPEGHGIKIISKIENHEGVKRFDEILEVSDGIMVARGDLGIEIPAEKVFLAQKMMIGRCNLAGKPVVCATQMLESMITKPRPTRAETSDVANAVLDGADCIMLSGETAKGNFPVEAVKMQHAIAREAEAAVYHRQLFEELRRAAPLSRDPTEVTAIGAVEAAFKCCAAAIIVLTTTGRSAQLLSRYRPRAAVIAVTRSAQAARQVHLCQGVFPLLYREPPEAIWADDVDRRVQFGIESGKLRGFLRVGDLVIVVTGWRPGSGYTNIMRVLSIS
Chain of PKR R532W (P30613 whole entry R532W): as the sequence (P30613 whole entry R510Q) above, with Q510R, R532W counted along it
Chain of PKR T384W (P30613 whole entry T384M): as the sequence (P30613 whole entry R510Q) above, with T384M, Q510R counted along it
Chain of wild type PKR (P30613 whole entry): as the sequence (P30613 whole entry R510Q) above, with Q510R counted along it
Chain of PKR wt (P30613 whole entry): as the sequence (P30613 whole entry R510Q) above, with Q510R counted along it

Structure (SMILES)	activation at 1 µM [1] [%]	activation at 1 µM [2] [%]	% Act. T384W [3]	activation at 1 µM [4] [%]	AC50 [5] [nM]	% Act. R532W [2]	% Act. R510Q [1]	Act. % WT [4]
CC1(O)CN(C(=O)c2ccc(NS(=O)(=O)c3cccc4cccnc34)c(F)c2)C1	101 to 500	1 to 100	B (a % activation at 1 μM of from 101 to 500)	101 to 500				
CC1(O)CN(C(=O)c2ccc(NS(=O)(=O)c3cccc4cccnc34)cc2)C1	101 to 500	1 to 100	B (a % activation at 1 μM of from 101 to 500)	101 to 500				
COc1cc(NS(=O)(=O)c2cccc3cccnc23)ccc1C(=O)N1CC(C)(O)C1	101 to 500	1 to 100	B (a % activation at 1 μM of from 101 to 500)	101 to 500				
COc1ccccc1OC1CN(C(=O)c2ccc(NS(=O)(=O)c3cccc4cccnc34)cc2)C1	101 to 500	1 to 100	B (a % activation at 1 μM of from 101 to 500)	101 to 500				
COc1cc(NS(=O)(=O)c2cccc3cccnc23)ccc1C(=O)N1CC(O)(Cc2ccccc2)C1	101 to 500	101 to 500	B (a % activation at 1 μM of from 101 to 500)	101 to 500				
Cc1cc(C(=O)N2CC(O)(Cc3ccccc3)C2)ccc1NS(=O)(=O)c1cccc2cccnc12	101 to 500	1 to 100	B (a % activation at 1 μM of from 101 to 500)	101 to 500				
Cc1cc(C(=O)N2CC(OC(=O)NC(C)C)C2)ccc1NS(=O)(=O)c1cccc2cccnc12	101 to 500	101 to 500	A (a % activation at 1 μM of from 1 to 100)	101 to 500				
COc1cc(NS(=O)(=O)c2cccc3cccnc23)ccc1C(=O)N1CC(OC(=O)NC(C)C)C1	101 to 500	101 to 500	B (a % activation at 1 μM of from 101 to 500)	101 to 500				
CC(C)NC(=O)OC1CN(C(=O)c2ccc(NS(=O)(=O)c3cccc4cccnc34)c(F)c2)C1	101 to 500	1 to 100	B (a % activation at 1 μM of from 101 to 500)	101 to 500				
CC(C)NC(=O)OC1CN(C(=O)c2ccc(NS(=O)(=O)c3cccc4cccnc34)cc2)C1	101 to 500	101 to 500	B (a % activation at 1 μM of from 101 to 500)	101 to 500				
Cc1cc(C(=O)N2CC(O)(c3ccccc3)C2)ccc1NS(=O)(=O)c1cccc2cccnc12	101 to 500	101 to 500	B (a % activation at 1 μM of from 101 to 500)	101 to 500				
COc1cc(NS(=O)(=O)c2cccc3cccnc23)ccc1C(=O)N1CC(O)(c2ccccc2)C1	101 to 500	101 to 500	B (a % activation at 1 μM of from 101 to 500)	101 to 500				
C=CCNC(=O)NC1CN(C(=O)c2ccc(NS(=O)(=O)c3cccc4cccnc34)cc2)C1	101 to 500	101 to 500	B (a % activation at 1 μM of from 101 to 500)	101 to 500				
C=CCNC(=O)NC1CN(C(=O)c2ccc(NS(=O)(=O)c3cccc4cccnc34)c(OC)c2)C1	101 to 500	101 to 500	B (a % activation at 1 μM of from 101 to 500)	101 to 500				
O=C(c1ccc(NS(=O)(=O)c2cccc3cccnc23)cc1)N1CC(O)C1	101 to 500	101 to 500	B (a % activation at 1 μM of from 101 to 500)	101 to 500				
Cc1cc(C(=O)N2CC(O)C2)ccc1NS(=O)(=O)c1cccc2cccnc12	101 to 500	101 to 500	A (a % activation at 1 μM of from 1 to 100)	101 to 500				
COc1cc(NS(=O)(=O)c2cccc3cccnc23)ccc1C(=O)N1CC(O)C1	101 to 500	101 to 500	A (a % activation at 1 μM of from 1 to 100)	101 to 500				
Cc1cc(C(=O)N2CC(C)(O)C2)ccc1NS(=O)(=O)c1cccc2cccnc12	101 to 500	101 to 500	B (a % activation at 1 μM of from 101 to 500)	101 to 500				
Cc1cc(C(=O)N2CC(Nc3ccccc3)C2)ccc1NS(=O)(=O)c1cccc2cccnc12	101 to 500	101 to 500	B (a % activation at 1 μM of from 101 to 500)	101 to 500				
CN(Cc1ccccc1)C1CN(C(=O)c2ccc(NS(=O)(=O)c3cccc4cccnc34)cc2)C1	101 to 500	101 to 500	B (a % activation at 1 μM of from 101 to 500)	101 to 500				
O=C(c1ccc(NS(=O)(=O)c2cccc3cccnc23)cc1)N1CC(Oc2ccccc2)C1 [drawing 4]	101 to 500	101 to 500	B (a % activation at 1 μM of from 101 to 500)	101 to 500	101 to 500			
O=C(c1ccc(NS(=O)(=O)c2cccc3cccnc23)cc1)N1CC(O)(Cc2ccccc2)C1 [drawing 5]	101 to 500	101 to 500	B (a % activation at 1 μM of from 101 to 500)	101 to 500	< 100			
Cc1cc(C(=O)N2CC(NC(=O)c3ccccn3)C2)ccc1NS(=O)(=O)c1cccc2cccnc12 [drawing 7]	101 to 500	1 to 100	B (a % activation at 1 μM of from 101 to 500)	101 to 500	101 to 500			
O=C(NC1CN(C(=O)c2ccc(NS(=O)(=O)c3cccc4cccnc34)cc2)C1)c1ccccn1 [drawing 8]	101 to 500		B (a % activation at 1 μM of from 101 to 500)	101 to 500		A (a % activation at 1 μM of from 1 to 100)		
COc1ccccc1N(C)C1CN(C(=O)c2ccc(NS(=O)(=O)c3cccc4cccnc34)cc2)C1 [drawing 21]	101 to 500		A (a % activation at 1 μM of from 1 to 100)	101 to 500		B (a % activation at 1 μM of from 101 to 500)		
COc1ccccc1N(C)C1CN(C(=O)c2ccc(NS(=O)(=O)c3cccc4cccnc34)cc2)C1 [drawing 32]			B (a % activation at 1 μM of from 101 to 500)			A (a % activation at 1 μM of from 1 to 100)	B (a % activation at 1 μM of from 101 to 500)	B (a % activation at 1 μM of from 101 to 500)
Cc1cc(C(=O)N2CC(Nc3ccccn3)C2)ccc1NS(=O)(=O)c1cccc2cccnc12 [drawing 55]	1 to 100	1 to 100	B (a % activation at 1 μM of from 101 to 500)	1 to 100				
O=C(Nc1ccccn1)OC1CN(C(=O)c2ccc(NS(=O)(=O)c3cccc4cccnc34)cc2)C1 [drawing 65]	101 to 500	101 to 500	B (a % activation at 1 μM of from 101 to 500)	101 to 500				
